Source: patent publication US20190022073A1, “PHARMACEUTICAL COMPOSITION COMPRISING RAPAMYCIN OR DERIVATIVE THEREOF” (NIPPON KAYAKU KABUSHIKI KAISHA, priority 2015, published 2019)

Test: pH of the stabilizer (additive) in water/ethanol mixture, measured by pH meter MM-60R (TOA DKK)
Settings: 5 mg/mL in water/EtOH=1:1 mixture
Experimental: The pH of the (B) component can be measured by preparing 50% (v/v) ethanol aqueous solution containing 5 mg/mL of the (B) component, and measuring pH using commercially available pH meter. For example, pH can be measured by using MM-60R (TOA DKK).

| Compound | pH of the additive used as stabilizer |
| --- | --- |
| O=C([O-])CC(O)(CC(=O)[O-])C(=O)O.[Na+].[Na+] [disodium hydrogen citrate] | 6.3 |
| O=C1O[C@H]([C@@H](O)CO)C([O-])=C1O.[Na+] [sodium ascorbate] | 8.4 |
